Values of other authors as cited in patent US20250339568A1, “PRECURSOR AND RADIOTRACER FOR NEUROENDOCRINE THERANOSTICS” (ITM Oncologics GmbH, priority 2021, published 2025).

Target: T1, HEK293-SSR2 tumour cells (Homo sapiens, UniProt P30874)
T1 construct: host or cells: HEK293-SSR2 tumour cells
Settings: reference example of EP 2 801 582 A1, Table 12

T1 sequence (P30874 whole entry): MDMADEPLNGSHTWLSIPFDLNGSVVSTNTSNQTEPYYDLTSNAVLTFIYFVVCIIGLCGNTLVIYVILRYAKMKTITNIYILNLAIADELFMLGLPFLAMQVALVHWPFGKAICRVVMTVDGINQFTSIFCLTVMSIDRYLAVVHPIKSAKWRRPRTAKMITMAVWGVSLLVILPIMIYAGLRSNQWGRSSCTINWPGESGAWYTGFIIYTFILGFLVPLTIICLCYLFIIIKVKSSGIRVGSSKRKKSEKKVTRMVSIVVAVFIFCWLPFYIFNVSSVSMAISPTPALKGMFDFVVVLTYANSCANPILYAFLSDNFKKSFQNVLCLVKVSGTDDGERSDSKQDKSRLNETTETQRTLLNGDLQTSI

uptake in HEK293-SSR2 tumour cells: without quantifiable uptake
Substance: DOTA-Cpa-cyclo[DCys-Pal-DAph(Cbm)-Lys-Thr-Cys]DTyr-NH2
